Test results reported in patent publication US7410971B2, “1,2-di(cyclic)substituted benzene compounds” (Eisai R&D Management Co., Ltd., priority 2003, dated 2008).

What was measured:
[1] = test system: Jurkat cells; experiment: Jurkat cell adhesion system (adhesion to immobilized human fibronectin, PMA-stimulated); type: cell-based; conditions: concentration inhibiting by 50% the PMA-stimulated increase in number of adhered Jurkat cells on human fibronectin
Experimental: Evaluation of Compounds in Jurkat Cell Adhesion System
<Immobilization of Human Fibronectin in 96-Well Plate>
Human fibronectin (Becton Dickinson Biosciences) was diluted with phosphate-buffered saline (hereinafter abbreviated as PBS; Sigma) to 0.1-0.01 μg/ml, and the diluted solution was added to a 96-well plate (Becton Dickinson) at 50μ/well, and allowed to stand overnight at 4° C. On the following day, the supernatant was removed from the plate, and then PBS containing 1% bovine serum albumin (hereinafter abbreviated as BSA; Sigma) was added thereto at 100 μl/well and incubation was performed at 37° C. for 2 hours in a CO2 incubator (Hirasawa).
The supernatant was removed from each plate and Jurkat cells suspended in RPMI-1640 (Sigma) containing 1 mg/ml BSA were added at 80 μl/well for 2.5×10^5 cells/well. The compound diluted to different concentrations with RPMI-1640 containing 1 mg/ml BSA was immediately added at 10 μl/well, and then 100 nM phorbol myristate acetate (hereinafter abbreviated as PMA; Sigma) in RPMI-1640 containing 1 mg/ml BSA was added at 10 μl/well and the plate was incubated in a CO2 incubator at 37° C. for 45-60 minutes. The supernatant was removed from the plate and each well was washed several times with 100 μl/well of RPMI-1640, after which 50 mM citrate buffer (pH 5.0) containing 3.75 mM p-nitrophenol-N-acetyl-β-D-glucosaminide (Sigma) and 0.25% Triton X-100 (Sigma) were added at 60 μl/well, and the mixture was placed in a CO2 incubator and incubated at 37° C. for 45 minutes. After incubation, 50 mM glycine buffer (pH 10.4) containing 5 mM EDTA was added at 90 μl/well, and the absorbance at 405 nm was measured with an EL340 Automated Microplate Reader (BIO-TEK) to determine the adhered cell count. The concentration of each compound which inhibited the increase in the number of adhered cells by the PMA-stimulation by 50% was recorded as the IC50 (μM).

[2] = test system: colon-infiltrating neutrophils (myeloperoxidase enzyme activity); experiment: Oxazolone-induced colon neutrophil infiltration model; type: in vivo, Balb/c mice; conditions: Mus musculus, po, 30 mg/kg orally 30 minutes prior to intrarectal oxazolone, colon myeloperoxidase activity 4 hours after, vs oxazolone control group, read-out: Inhibitory rate (%)
Experimental: Evaluation of Compounds in Oxazolone-Induced Colon Neutrophil Infiltration Model
<Sensitization with Oxazolone>
Five- to six-week-old male Balb/c mice (Charles River Japan) were shaven at the abdomen to an approximately 2 cm square area. A 100% ethanol solution containing 3% 4-ethoxymethylene-2-phenyl-2-oxazolin-5-one (hereinafter referred to as “oxazolone”; Sigma) was applied at 150 μl onto the abdomen of each mouse.
<Preparation of Emulsion Containing Oxazolone>
Distilled water (Otsuka Pharmaceutical) was added in an equivalent volume to 100% peanut oil (Kanto Kagaku) containing 1% oxazolone, and the components were vigorously mixed with a glass syringe (Top Co.), to prepare an emulsion containing 0.5% oxazolone.
<Induction with Oxazolone>
The mice were fasted on the 3rd day after oxazolone sensitization, and were injected with 100 μl of the emulsion containing 0.5% oxazolone prepared in the way described above intrarectally at a site approximately 3 cm from the anus under ether anesthesia on the 4th day.
<Colon-Infiltrating Neutrophil Assay>
Each compound was suspended or dissolved in an aqueous solution containing 0.5% methyl cellulose (Wako), and orally administered at 30 mg/kg 30 minutes prior to the intrarectal injection of oxazolone emulsion. Four hours after the intrarectal injection of oxazolone, mice were sacrificed by cervical dislocation, and colons were extirpated, dissected in the longitudinal direction, washed with physiological saline, and transferred to ice-cooled plastic centrifugation tubes. After adding 1 ml of 50 mM potassium phosphate buffer (hereinafter abbreviated as KPB) (pH 6.0) to the tube, and the tissue were homogenized with PHYSCOTRON (Microtec Nition Co., Ltd.), 2 ml of 50 mM KPB (pH 6.0) was added and the mixture was centrifuged at 3000 rpm, 4° C. for 10 minutes and the supernatant was removed. To the resultant precipitate was added 1 ml of 50 mM KPB (pH 6.0) containing 0.5% hexadecyltrimethyl-ammonium bromide (Sigma), and freeze-thawed 3 to 5 times using liquid nitrogen and hot water, centrifuged at 3000 rpm, 4° C. for 10 minutes to yield a supernatant. The myeloperoxidase enzyme activity in the supernatant was assayed in the following manner. Specifically, to 10 μl of the obtained supernatant was added 200 μl of 50 mM KPB (pH6.0) containing 0.017% o-dianisidine (Sigma) and 0.0005% hydrogen peroxide (Wako), incubated at 37° C., and the change in absorbance at 450 nm was continuously measured for 1 minute using an EL340 Automated Microplate Reader (BIO-TEK) in kinetic mode. The units were the rate of change in absorbance per minute (mO.D./min.). With regard to the effect of each compound, the inhibitory rate (%) with respect to the oxazolone control group, i.e. the oxazolone-injected/compound-free group, was shown in the table 3.

SMILES	IC50 [1]	inhibition in vivo at 30 mg/kg [2]
CCCCN1CCN(c2cc(C#N)ccc2[C@H]2CC[C@@H](C(C)(C)C)CC2)CC1.Cl [Example 12, cis-4-(4-t-Butylcyclohexyl)-3-(4-butylpiperazine-1-yl)benzonitrile hydrochloride]	3.1 µM	34%
CCCCN1CCN(c2cc(C#N)ccc2[C@H]2CC[C@H](C(C)(C)C)CC2)CC1.Cl [Example 13, trans-4-(4-t-Butylcyclohexyl)-3-(4-butylpiperazin-1-yl)benzonitrile hydrochloride]	3.9 µM	13%
